According to PMC12117998, “First Steps toward the Design of Peptides that Influence the Intracellular Palmitoylation Machinery” (Chembiochem, 2025):
No end group written: not given here.

Columns and labels:
HeLa cells = assay: Live‐cell fluorescence imaging of peptide uptake; assay type: cell-based
Method: HeLa (40,000), MDA‐MB‐231 (30,000), or HFF1 (55,000) cells were seeded into an 8‐well ibidi. Cells were treated for 30 min with 5 μM of CF‐labeled peptide diluted in the appropriate serum‐free media. The cell nuclei were stained with the Hoechst 33342 nuclear dye for the last 10 min of the total incubation time. Afterward, cells were washed three to four times using serum‐free medium and finally, medium containing FBS was added for the microscopy. Live fluorescence microscopy analyses were performed on the LSM 980 with Airyscan 2 Inverse Confocal Laser Scanning Microscope (Carl Zeiss) on a 63X Plan‐Apochromat oil objective (NA 1.4, Zeiss) at 37 °C and 5% CO2 or on the BZ‐X810 (Keyence) using a 60X Plan‐Apochromat oil objective (NA 1.4, Keyence). Images were cropped and processed using Fiji.
(§1) Hela cells (15,000) were seeded into a 96-well plate. Cells were treated with suitable peptide concentrations diluted in the corresponding serum-free culture medium. After 1 h peptide incubation under standard growth conditions, the positive control was either directly treated with lysis solution or the supernatant was exchanged for serum-free culture medium and the plate was incubated for further 5 h under growing conditions. The CytoTox-ONE™ Reagent was added and incubated at RT for 10 minutes. Finally, the Stop Solution was added and the fluorescence was measured at 595 nm (λex = 550 nm) on an infinite M200 plate reader (Tecan) and normalized to the positive control cells.
Red blood cells (RBCs) were washed three times in PBS by centrifug ing at 4 °C and 3,000 x g for 5 min and diluted to 5% in PBS. The desired peptide concentrations diluted in PBS were added into a 96-well plate. Next, 5% RBCs in PBS were added into the wells and incubated for 24 h at 37 °C and 5% CO2. As a positive control, RBCs were mixed with 10% Triton X-100 in PBS. […] Lastly, the absorption (λ=560 nm) was measured on the infinite M200 plate reader (Tecan). For the evaluation, the measured absorption of the Triton-X-100 treatment was set to a hemolysis rate […]

[1] = test system: EGFR signaling in SW480 cells; assay: EGFR‐related signaling cascade (immunoblot); assay type: cell-based, human; conditions: SW480, serum‐starved, 15 μM DC‐2 for 6 h
Method: (§2) SW480 and SW620 cells (1,200,000) were seeded into a 6‐well plate. The next day, cells were once washed with PBS and starved for 18 h with DMEM + 0.2% BSA. Next, 15 μM DC‐2 diluted in DMEM + 0.2% BSA was incubated with the cells for 6 h. Control wells were only treated with the starvation medium. Afterward, all wells were washed once with PBS and 200 ng ml^−1 EGF diluted in DMEM + 0.2% BSA was added for 15 min. Cells were again washed once with PBS and ice‐cold lysis buffer (25 mM Tris, 150 mM NaCl,1 mM TCEP, 2 mM EDTA, 1% Triton‐X‐100, pH 7.4) supplemented with Halt Protease and Phosphatase Inhibitor Cocktail (Thermo Fisher) was added to scrape the cells from the well. Lysates were incubated on ice for 30 min slightly shaking. After centrifugation for 30 min at 14,000 rpm at 4 °C, lysates were mixed with 4X SDS‐PAGE loading buffer (200 mM Tris‐HCl pH 6.8, 400 mM dithiothreitol, 8% SDS, 0.4% bromophenol blue, and 40% glycerol) and heated at 95 °C for 5 min. Protein samples were analyzed by SDS‐PAGE and immunoblotting. The following antibodies were used: anti‐EGFR (Cell Signaling Technology (CST) Cat#4267), anti‐pEGFR (CST Cat #3777), anti‐AKT (CST Cat#9272); anti‐pAKT (CST Cat#4060); anti‐ERK1/2 (CST Cat#4695); anti‐pERK1/2 (CST Cat#4370); anti‐β‐actin‐horseradish peroxidase (HRP) (Santa Cruz Biotechnology Cat# sc‐47778 HRP); or anti‐rabbit‐HRP conjugate (CST Cat#7074S). Images were cropped, processed, and quantified using the ImageLab software (BioRad).

[2] = test system: EGFR signaling in SW620 cells; assay: EGFR‐related signaling cascade (immunoblot); assay type: cell-based, human; conditions: SW620 (low EGFR expression), serum‐starved, 15 μM DC‐2 for 6 h, ± 200 ng ml^−1 EGF 15 min, n = 3
Method: as §2

[3] = Peptide incubation in media and identification of peptide species (LC-MS); assay type: physicochemical
Method: as §1
Red blood cells (RBCs) were washed three times in PBS by centrifug ing at 4 °C and 3,000 x g for 5 min and diluted to 5% in PBS. The desired peptide concentrations diluted in PBS were added into a 96-well plate. Next, 5% RBCs in PBS were added into the wells and incubated for 24 h at 37 °C and 5% CO2. As a positive control, RBCs were mixed with 10% Triton X-100 in PBS. After the incubation time was completed, the plate was centrifuged at 2,500 x g for 3 min at RT and 100 μL of the supernatant was transferred into a fresh 96 -well plate. Lastly, the absorption (λ=560 nm) was measured on the infinite M200 plate reader (Tecan). For the evaluation, the measured absorption of the Triton-X-100 treatment was set to a hemolysis rate […]
30,000 HeLa cells were seeded into an 8-well. Cells were stained for 10 min with the Hoechst 33342 nuclear dye and transferred to the microscope UltraView VoX Spinning Disk Confocal Microscope (Perkin Elmer). 5 µM CF-DC-2 were added to the cells. Cells were imaged on a Plan-Apo Tirf 60X oil objective (NA 1.49, Nikon) at 37°C a nd 5% CO2. […]
mixed with 5 µl TFA. […] Finally, the different peptide species were analyzed by analytical HPLC ESI-MS (LTQ XL, Thermo Scientific) using a gradient of 10% to 60% of acetonitrile (ACN) in ddH2O + 0.1% formic acid (FA) on an Aeris 3.6 µm PEPTIDE XB-C18 100 LC column (Phenomenex).

GLRKRLRKFRNKKMDHHCPW-NH2 [DC‐2, CPP sC18* fused to the DHHC motif derived from ZDHHC2/3/6/7/15/16/20]
time‐lapse cellular uptake (HeLa cells; 5 μM CF-DC-2, imaged every 10 sec for 30 min (Video 1)): rapid cellular uptake | intracellular uptake pattern (HeLa cells; 30 min, 5 μM CF‐labeled peptides, confocal laser scanning microscopy (Figure 3G)): diffuse cytosolic pattern | ERK and AKT phosphorylation, peptide only vs untreated ([1]; n = 3 (Figure 8B)): slight increase in ERK and AKT phosphorylation | EGFR and ERK phosphorylation, peptide and EGF vs EGF only ([1]; then 200 ng ml^−1 EGF 15 min, n = 3 (Figure 8B,C)): increase in EGFR and ERK phosphorylation | effects on EGFR signaling [2]: no effects | peptide species observed in medium lacking L‐cystine ([3]; 5 µM CF-DC-2 in serum-free medium lacking L-cystine and L-methionine, LC‐MS (Figure S8A)): mostly reduced peptide was observed | peptide species observed in normal cell culture medium ([3]; 5 µM CF-DC-2 in serum-free medium, before addition to HeLa cells and after 30 min at 37 °C, LC‐MS, Δmass = +119 Da (Figure S8A)): S‐cysteinylation at the cysteine | disulfide dimer formation in normal cell culture medium ([3]; 5 µM CF-DC-2 in serum-free medium, before addition to HeLa cells or after 30 min at 37 °C, LC‐MS (Figure S8A)): did not observe the disulfide dimer
